According to ChEMBL document CHEMBL1148863, “Discovering new inhibitors of bacterial glucosamine-6P synthase (GlmS) by docking simulations” (Bioorg Med Chem Lett, 2007):
pIC50: −log10 of the molar value.

Assays:
[1] = Inhibition of bacterial glucosamine-6-phosphate synthase by colorimetric morgan-elson assay
[2] = Inhibition of bacterial glucosamine-6-phosphate synthase at 100 uM by colorimetric morgan-elson assay

Nc1nc[nH]n1 [AMITROLE]
pIC50 [1]: 4.00

COc1ccc(-c2sc(C(=O)O)cc2CC(=O)O)cc1
inhibition [2]: 0%

COc1cc2ccnc3c2c(c1OC)NC=C3 [AAPTAMINE]
pIC50 [1]: 3.92

O=C(O)CC(Sc1ccc(C(=O)O)cc1)C(=O)O (stereo not drawn)
inhibition [2]: 0%

O=C(O)C[C@@H](NS(=O)(=O)c1ccccc1)C(=O)O
inhibition [2]: 0%

O=C(C1=C(O)C(=O)N(Cc2cccnc2)C1c1cccc(Oc2ccccc2)c1)c1ccco1 (stereo not drawn)
inhibition [2]: 20%

COC(=O)c1sc(N2C(=O)C(O)=C(C(=O)c3ccc(Cl)cc3)C2c2ccccc2F)nc1C (stereo not drawn)
inhibition [2]: 0%

CCOC(=O)c1sc(N2C(=O)C(O)=C(C(=O)c3ccc(F)cc3)C2c2ccc(OC)cc2)nc1C (stereo not drawn)
pIC50 [1]: 4.15 | inhibition [2]: 70%

N[C@@H](CO)[C@@H](O)[C@H](O)[C@H](O)COP(=O)(O)O
pIC50 [1]: 4.25 | inhibition [2]: 85%

O=C(O)Cc1csc(NC(=O)CSc2ccccn2)n1
inhibition [2]: 0%

O=S(=O)(NC(NS(=O)(=O)c1ccccc1)c1ccc(Br)cc1)c1ccccc1
inhibition [2]: 0%

COC(=O)c1sc(N2C(=O)C(O)=C(C(=O)c3ccccc3)C2c2ccc(C)cc2)nc1C (stereo not drawn)
inhibition [2]: 0%

COc1ccccc1C1Oc2ccccc2C2=C1C(c1ccccc1OC)n1nc(C)nc1N2 (stereo not drawn)
pIC50 [1]: 4.15 | inhibition [2]: 70%

CCOC(=O)c1sc(N2C(=O)C(O)=C(C(=O)c3ccc(F)cc3)C2c2cccc(Br)c2)nc1C (stereo not drawn)
pIC50 [1]: 4.15 | inhibition [2]: 70%
